Reference: US20040038369A1, “Airway-specific trypsin-like enzymes and method of using the same” (priority 2000, published 2004)

Key:
[1] = system: normal human airway epithelial cells; test: Calcium influx in normal human airway epithelial cells; format: cell-based; conditions: AST 2 units/mL; trypsin 10 to 100 units/mL; SFLLRNamide 100 μM
Procedure: The Ca^2+ influx due to the AST was examined with confluent normal epithelial cells adhered to three 10 cm dishes (purchased from BioWhittaker Corp.). The cells were peeled with a 10 mM EDTA/HEPES-Tyrode buffer solution for 10 minutes, recovered by a centrifugal treatment at 800 rpm at room temperature for 5 minutes, and then resuspended in 5 mL of HEPES-Tyrode buffer solution-Ca^2+ (−) pH 7.4. The recovered cells (about 1.2×10^6 cells) were suspended in 5 mL of HEPES-Tyrode buffer solution (1 μg/mL, containing Fura2-AM) to load the Fura2-AM to the cells at 37° C. for one hour. The cells were recovered by a centrifugal treatment at 800 rpm at room temperature for 5 minutes, twice washed with HEPES-Tyrode buffer solution-Ca^2+ (−) pH 7.4, and then resuspended in […] of HEPES-Tyrode buffer solution-Ca^2+ (−) pH 7.4. The cell suspension was mixed with 5 μL of 1M CaCl2 to give a final concentration of 1 mM CaCl2, and then incubated in a shaded state at room temperature for 5 minutes. The prepared Fura2-AM-loaded infected cells were dispensed into a 96 well plate in a volume of 100 μL/well, further subjected to the dispensation of HEPES-Tyrode buffer solution-Ca^2+ (+) pH 7.4 in a volume of 80 μL/well, and then assayed with Fluorescence Drug Screening System (Hamamatsu Photonics Co.). […]

PAR-2 = molecular target: T1, PAR-2 (Homo sapiens, UniProt P55085); test: Calcium influx in PAR-2-expressing insect cells; format: cell-based; conditions: AST 2 units/mL; trypsin, thrombin 0.1 to 10 units/mL; SFLLRNamide, SLIGRL 10 to 100 μM
T1 construct: expressed in transfected cells; host or cells: Sf9 insect cells infected with recombinant baculovirus VL-PAR (pVL1393)
T1 sequence (P55085 26-397): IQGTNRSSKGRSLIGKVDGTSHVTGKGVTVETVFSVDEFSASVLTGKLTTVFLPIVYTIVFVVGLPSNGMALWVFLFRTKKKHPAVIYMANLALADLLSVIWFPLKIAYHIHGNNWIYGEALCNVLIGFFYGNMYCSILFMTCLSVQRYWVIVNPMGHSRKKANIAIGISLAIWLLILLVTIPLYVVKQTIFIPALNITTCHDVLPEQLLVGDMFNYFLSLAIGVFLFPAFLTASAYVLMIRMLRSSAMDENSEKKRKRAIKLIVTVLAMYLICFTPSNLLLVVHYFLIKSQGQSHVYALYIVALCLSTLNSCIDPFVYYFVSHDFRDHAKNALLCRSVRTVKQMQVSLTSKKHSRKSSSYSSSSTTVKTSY
Procedure: The above-obtained recombinant baculovirus VL-PAR for expressing the PAR was used to infect 1.0×10^7 Sf9 cells sowed on a 75 cm^2 flask at an MOI=2, and was then left and stationally cultured at 27° C. for 40 hours. After the culture, the infected cells were recovered and then subjected to a calcium influx experiment to-confirm the function of the PAR.
The recovered infected cells (about 5×10^6 cells) were once washed with HEPES-Tyrode buffer solution-Ca^2+ (−) pH 7.4, and then suspended in 5 mL of HEPES-Tyrode buffer solution (containing Fura2-AM, 1 μg/mL) to load the Fura2-AM on the cells at 27° C. for 30 minutes. The suspension was centrifuged at 800 rpm at room temperature for 5 minutes to recover the cells. The cells were twice washed with HEPES-Tyrode buffer solution-Ca^2+ (−) pH 7.4 and then resuspended in 5 mL of HEPES-Tyrode buffer solution-Ca^2+ (−) pH 7.4. The cell suspension was mixed with 5 μL of 1M CaCl2 to give a final concentration of 1 mM CaCl2, and then incubated in a shaded state at room temperature for 5 minutes. The prepared Fura2-AM-loaded infected cells were dispensed into a 96 well plate in a volume of 100 μL/well, further subjected to the dispensation of HEPES-Tyrode buffer solution-C^2+ (+) pH 7.4 in a volume of 80 μL/well, and then assayed with a Fluorescence Drug Screening System (made by Hamamatsu Photonics Co.). Namely, [intensity of 500 nm fluorescent light due to 340 nm exciting light]/[intensity of 500 nm fluorescent light due to 380 nm exciting light] (reflecting the concentration of calcium in the cells) was assayed.

[2] = Enzymatic activity of mammalian ASTs transiently expressed in 293 EBNA cells; format: biochemical
Procedure: A forward primer and a reverse primer were prepared on gene sequences encoding the N-terminal and C-terminal of each mammalian AST, and a cDNA encoding the full-length AST was prepared by a PCR amplification using the forward primer, the reverse primer, Pyrobest DNA polymerase (produced by Takara Shuzo Co.), and an airway cDNA as a template. On the other hand, a product obtained by cleaving pcDNA3 (produced by Invitrogen Corp.) with restriction enzymes NruI and KpnI, and the promoter domain of Elongation Factor-1a (EF-1 a) from human genome were amplified by a PCR using a forward primer: […] and a reverse primer: […]. […]
Human fetal kidney-originated 293 EBNA cells (Invitrogen Corp.) were cultured in a 10 cm schale, and the about 5.8×10^6 cells were transfected with 28 μg of each expression plasmid prepared in (1) in 56 μL of LipofectAMINE 2000 (produced by GibcoBRL Corp.) according to an appended manual. […] 40 μL of the above-described assay sample was mixed with 20 μL of a synthetic substrate solution (a solution obtained by diluting a 10 mM Boc-Phe-Ser-Arg-MCA DMSO (dimethyl sulfoxide) solution with the buffer solution for the AST activity assay 50 times), and the increase of the fluorescence intensity per minute was assayed (fluorescence wavelength: 460 nm, excitation wavelength: 380 nm) to determine the enzymatic activity.

HAST: human airway-specific trypsin-like enzyme; propeptide moiety bound to trypsin-like protein moiety via a disulfide bond
Ca2+ influx [1]: observed | Ca2+ influx (PAR-2): observed | Cell lysate Fluorescence intensity ratio (Human:100) ([2]; 293 EBNA cell lysate, three days after transfection): 100 | Sup Fluorescence intensity ratio (Human:100) ([2]; 293 EBNA, Sup): 100
